For assay [1], the target named is Endothelial PAS domain-containing protein 1 (Homo sapiens) (UniProt Q99814). In words: HIF-2a and HIF-1a reporter inhibition panel, dose response, selectivity assay for HIF-2a inhibitor project, cell-based, luminescence (AID 651581).
For assay [2], the target named is Hypoxia-inducible factor 1-alpha (Homo sapiens) (UniProt Q16665). The description is as above. The following applies: HIF-1a.

One may read the IC50 as the concentration that inhibits the measured activity by half.

Active and inactive are the calls of the source. No rule for the calls is given here. Where only a bound is given, the exact number is not on record here.

Sequence of Hypoxia-inducible factor 1-alpha (Homo sapiens) (Q16665 whole entry, looked up): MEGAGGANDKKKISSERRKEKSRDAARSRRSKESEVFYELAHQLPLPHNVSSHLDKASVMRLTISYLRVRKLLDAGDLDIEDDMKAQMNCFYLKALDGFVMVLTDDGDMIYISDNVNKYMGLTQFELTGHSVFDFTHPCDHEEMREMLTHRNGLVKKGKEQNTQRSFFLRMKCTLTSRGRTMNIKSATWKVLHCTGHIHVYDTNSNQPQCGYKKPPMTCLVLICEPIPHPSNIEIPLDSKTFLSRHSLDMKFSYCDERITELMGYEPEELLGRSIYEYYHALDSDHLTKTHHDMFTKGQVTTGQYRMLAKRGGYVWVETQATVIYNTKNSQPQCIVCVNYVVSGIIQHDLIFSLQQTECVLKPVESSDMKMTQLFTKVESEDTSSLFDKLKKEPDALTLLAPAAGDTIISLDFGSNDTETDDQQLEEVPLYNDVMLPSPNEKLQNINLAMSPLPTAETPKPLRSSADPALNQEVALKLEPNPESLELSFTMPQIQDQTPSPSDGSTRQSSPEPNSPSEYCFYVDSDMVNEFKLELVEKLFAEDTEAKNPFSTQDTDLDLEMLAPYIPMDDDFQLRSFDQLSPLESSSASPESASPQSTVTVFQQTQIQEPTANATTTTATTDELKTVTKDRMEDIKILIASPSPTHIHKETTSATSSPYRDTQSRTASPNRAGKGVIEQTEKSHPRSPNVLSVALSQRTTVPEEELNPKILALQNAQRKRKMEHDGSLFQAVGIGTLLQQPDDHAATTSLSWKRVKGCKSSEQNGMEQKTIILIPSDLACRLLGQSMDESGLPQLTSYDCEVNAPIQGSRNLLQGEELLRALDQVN

For `CC(=O)Nc1ccc(NC(=O)c2ccc(-c3ccnn3C)c3ccoc23)cc1`, the IC50 in assay [1] (HIF-2a PANC, mean of runs) is 1.85 µM; in assay [1] (HIF-2a PANC, run 1) it was 2.03 µM; in assay [1] (HIF-2a PANC, run 2) it was 1.67 µM; in assay [1] (HIF-2a, mean of runs), 0.858 µM; in assay [1] (HIF-2a, run 1) it was 0.938 µM; in assay [1] (HIF-2a, run 2), 0.777 µM. Further, the half-maximal inhibitory concentration (IC50) in assay [2] (run 1) was 3.89 µM; in assay [2] (run 2), above 99 µM.
On to `COCCn1c(C)cc(C(=O)CSc2nnc(C)s2)c1C`, for which the concentration for half-maximal inhibition (IC50) in assay [1] (HIF-2a PANC, mean of runs) was 7.96 µM; in assay [1] (HIF-2a PANC, run 1) it was 3.81 µM; in assay [1] (HIF-2a PANC, run 2), 12.1 µM; in assay [1] (HIF-2a, mean of runs), 5.99 µM; in assay [1] (HIF-2a, run 1), 6.5 µM; in assay [1] (HIF-2a, run 2) it was 5.48 µM. Further, the IC50 in assay [2] (run 1) came to 8.55 µM; in assay [2] (run 2) it was 18.9 µM. In addition, in assay [2] (mean of runs), the IC50 result was “inactive”.
As for `Cc1nc2cc(-c3ccccc3)nn2c(C)c1CCC(=O)NC(C)c1ccc2c(c1)OCCO2` (stereo unspecified), the IC50 in assay [1] (HIF-2a PANC, mean of runs) is 2.4 µM; in assay [1] (HIF-2a PANC, run 1), 2.9 µM; in assay [1] (HIF-2a PANC, run 2), 1.91 µM; in assay [1] (HIF-2a, mean of runs), 3.26 µM; in assay [1] (HIF-2a, run 1) it was 3.59 µM; in assay [1] (HIF-2a, run 2), 2.92 µM. For the same compound, the IC50 in assay [2] (mean of runs) is 24.3 µM; in assay [2] (run 1), 3.84 µM; in assay [2] (run 2) it was 44.7 µM.
Consider `CSc1ccc(/C=N/Nc2cccc(C(=O)O)c2)cc1`, for which the IC50 was > 99 µM (inactive) in assay [1] (HIF-2a PANC, mean of runs); above 99 µM in assay [1] (HIF-2a PANC, run 1); above 99 µM in assay [1] (HIF-2a PANC, run 2); 5.33 µM in assay [1] (HIF-2a, mean of runs); 5.25 µM in assay [1] (HIF-2a, run 1); 5.4 µM in assay [1] (HIF-2a, run 2). The IC50 in assay [2] (run 1) and in assay [2] (run 2) was above 99 µM in each case.
In the case of `Cc1nnnn1/C(=C\c1ccccc1)C(=O)OCC(=O)Nc1ccc(Cl)cc1F`, the half-inhibitory concentration (IC50) in assay [1] (HIF-2a PANC, mean of runs) is 19.9 µM; in assay [1] (HIF-2a PANC, run 1) it was 19.3 µM; in assay [1] (HIF-2a PANC, run 2), 20.6 µM; in assay [1] (HIF-2a, mean of runs), 8.16 µM; in assay [1] (HIF-2a, run 1) it was 8.44 µM; in assay [1] (HIF-2a, run 2), 7.88 µM. The IC50 in assay [2] (run 1) came out at 16 µM; in assay [2] (run 2), 21.2 µM. The IC50 entry in assay [2] (mean of runs) was “inactive”.
On to `NNC(=O)COc1ccc(-c2nccc(-c3ccc(F)cc3)n2)cc1`, for which the IC50 in assay [1] (HIF-2a PANC, mean of runs) is 2.37 µM; in assay [1] (HIF-2a PANC, run 1) it was 2.39 µM; in assay [1] (HIF-2a PANC, run 2), 2.34 µM; in assay [1] (HIF-2a, mean of runs), 2.66 µM; in assay [1] (HIF-2a, run 1), 2.56 µM; in assay [1] (HIF-2a, run 2) it was 2.75 µM. Also, the IC50 in assay [2] (run 1) amounted to 3.37 µM; in assay [2] (run 2), 1.1 µM. The IC50 entry in assay [2] (mean of runs) was “inactive”.
For the compound `O=C(CSc1nnc(-c2ccc(Br)cc2)o1)Nc1cccc(C(=O)O)c1`, the IC50 in assay [1] (HIF-2a PANC, mean of runs) was > 99 µM (inactive); in assay [1] (HIF-2a PANC, run 1), above 99 µM; in assay [1] (HIF-2a PANC, run 2), above 99 µM; in assay [1] (HIF-2a, mean of runs), 9.73 µM; in assay [1] (HIF-2a, run 1) it was 10.4 µM; in assay [1] (HIF-2a, run 2), 9.1 µM. Moreover, the IC50 in assay [2] (run 1) and in assay [2] (run 2) was above 99 µM throughout.
For `Cc1ccc(C(=O)c2cccc(N)c2)cc1C`, the IC50 entry in assay [1] (HIF-2a PANC, mean of runs) is “inactive”. The IC50 in assay [1] (HIF-2a PANC, run 1) was 3.29 µM; in assay [1] (HIF-2a PANC, run 2), 6.42 µM; in assay [1] (HIF-2a, mean of runs), 0.864 µM; in assay [1] (HIF-2a, run 1) it was 0.858 µM; in assay [1] (HIF-2a, run 2), 0.87 µM; in assay [2] (mean of runs), 4.05 µM. For the same compound, the IC50 came to 5.07 µM in assay [2] (run 1) and 3.03 µM in assay [2] (run 2).
Take `O=Nc1c(O)ccc2cc(S(=O)(=O)O)ccc12`: the IC50 entry in assay [1] (HIF-2a PANC, mean of runs) is “inactive”. The IC50 in assay [1] (HIF-2a PANC, run 1) is 25.5 µM; in assay [1] (HIF-2a PANC, run 2), 51.1 µM; in assay [1] (HIF-2a, mean of runs), 8.77 µM; in assay [1] (HIF-2a, run 1), 8.62 µM; in assay [1] (HIF-2a, run 2), 8.91 µM; in assay [2] (run 1), 3.06 µM. The 50% inhibitory concentration (IC50) in assay [2] (run 2) is above 99 µM.
In the case of `CCOC(=O)NC(=O)COC(=O)CCCSc1nc2ccccc2s1`, the IC50 in assay [1] (HIF-2a PANC, mean of runs) was 11.3 µM; in assay [1] (HIF-2a PANC, run 1) it was 12 µM; in assay [1] (HIF-2a PANC, run 2), 10.7 µM; in assay [1] (HIF-2a, mean of runs) it was 9.56 µM; in assay [1] (HIF-2a, run 1) it was 8.83 µM; in assay [1] (HIF-2a, run 2) it was 10.3 µM. Further, the 50% inhibitory concentration (IC50) was found to be 24.2 µM in assay [2] (run 1) and 13.4 µM in assay [2] (run 2). The IC50 result in assay [2] (mean of runs) was “inactive”.

(Values after PubChem BioAssay AID651581 (Sanford-Burnham Center for Chemical Genomics, 2012).)
